Measured values published in patent US12043602B2, “Fendiline derivatives” (The Board of Regents of the University of Texas System, priority 2019, dated 2024).
Read-outs that look alike come from different tables or passages of the source.

Assays:
mGFP-K-RASG12V = mGFP-K-RASG12V (Homo sapiens (Human), UniProt P01116, G12V); test: K-Ras mislocalization assay (confocal microscopy, Manders coefficient); assay type: cell-based; set-up: key to Emax: Manders coefficient: fraction of mCherry-CAAX co-localizing with GFP-K-Ras; conditions: for Emax: maximal effect, Manders coefficient; for IC50: 48 h treatment, read-out: IC50 (μM), KRASG12V mislocalization
Procedure: Madine Darby Canine Kidney epithelial cells (MDCK) stably co-expressing mGFP-tagged full length oncogenic mutant K-Ras (GFP—K-RASG12V) or mGFP-LactC2 (peptide probe for phosphatidylserine) and mCherry-tagged to the amino acids 179-189 of H-RasC181S, C184S (mCherry-CAAX, localizes primarily to endomembranes) were grown in DMEM-high glucose/sodium pyruvate/10% FBS. The medium was supplemented with 1× Penicillin/Streptomycin for fluorescence microscopy assays, to avoid any microbial contamination from the test compounds added. KLE and Hec50 cells were maintained in DMEM-F-12 medium supplemented with 10% FBS. Hec-1A and Hec-1B cells were grown in McCoy's 5a medium supplemented with 10% FBS. ESS-1 cells were grown in RPMI 1640 medium supplemented with 20% FBS. MPanc96 cells were grown in DMEM supplemented with 10% FBS, MiaPaCa-2 cells in DMEM supplemented with 10% FBS and 2.5% horse serum and all other cell lines were grown in RPMI 1640 supplemented with 10% FBS. All cancer cell media were supplemented with ×Penicillin/Streptomycin. All cell lines were grown at 37° C. with 5% CO2.
MDCK co-expressing GFP—K-RASG12V or LactC2 and mCherry-CAAX were grown on coverslips, treated with 0.1% vehicle (DMSO) or various concentrations of drugs for 48 h, and fixed with 4% paraformaldehyde. The coverslips were mounted in mowiol and imaged by confocal microscopy (Nikon A1) using a 60× objective. Using ImageJ software v1.42q, images were converted to 8-bit, and a threshold to a control pixel of each image was set. As a measure of K-Ras/LactC2 mislocalization, the fraction of mCherry-CAAX co-localizing with mGFP-K-RASG12V was calculated using a Manders coefficient plugin downloaded from Wright Cell Image Facility. The fraction of mCherry-CAAX co-localizing with mGFP-RASG12V (Mander's coefficient) is proportional to K-Ras mislocalization.

[1] = system: MDCK cells co-expressing GFP-K-RASG12V and mCherry-CAAX; test: Cytotoxicity in mislocalization screen (death of all cells in well); conditions: drug caused death of all cells in well at 30 μM
[2] = batch 4 compounds, MDCK cells, 48 h, title calls it IC50, read-out: EC50

| Compound | Emax (mGFP-K-RASG12V; MDCK cells, 48 h) | Cytotoxic at 30 μM [1] | IC50 (mGFP-K-RASG12V; MDCK cells) [µM] | also measured |
| --- | --- | --- | --- | --- |
| C(CNC1(c2ccccc2)CCCCC1)=C(c1ccccc1)c1ccccc1 [NY0514, N-(3,3-diphenylallyl)-1-phenylcyclohexan-1-amine] | 0.802 | No |  | EC50 (mGFP-K-RASG12V): 1.34 µM |
| C[C@H](c1ccc(F)cc1)N(CCN1CCCC1)C(=O)c1ccc(C(F)(F)F)cc1 [PW322, (R)-N-(1-(4-Fluorophenyl)ethyl)-N-(2-(pyrrolidin-1-yl)ethyl)-4-(trifluoromethyl)benzamide] | 0.662 | No |  |  |
| COc1ccc(C(=CCN(CCN2CCCC2)[C@H](C)c2ccc(F)cc2)c2ccc(OC)cc2)cc1 [PW356, (R)-N-(1-(4-Fluorophenyl)ethyl)-3,3-bis(4-methoxyphenyl)-N-(2-(pyrrolidin-1-yl)ethyl)prop-2-en-1-amine] | 0.641 | Yes at 10 uM | 2.44 |  |
| C[C@H](c1ccc([N+](=O)[O-])cc1)N(CC=C(c1ccccc1)c1ccccc1)CCN1CCN(C)CC1 [NY0522, (R)-N-(2-(4-methylpiperazin-1-yl)ethyl)-N-(1-(4-nitrophenyl)ethyl)-3,3-diphenylprop-2-en-1-amine] | 0.621 | Yes | 5.2 | EC50 (mGFP-K-RASG12V; [2]): 5.17 µM; Emax (mGFP-K-RASG12V; MDCK cells, 48 h, listed as 15h): 0.62 ± 0.02 |
| Cc1cc(C)n(CCN(CC=C(c2ccccc2)c2ccccc2)[C@H](C)c2ccc(F)cc2)n1 [PW299, (R)-N-(2-(3,5-dimethyl-1H-pyrazol-1-yl)ethyl)-N-(1-(4-fluorophenyl)ethyl)-3,3-diphenylprop-2-en-1-amine] | 0.696 | No | 0.654 |  |
| C[C@@H](CN(CC=C(c1ccccc1)c1ccccc1)CC=C(c1ccccc1)c1ccccc1)c1ccccc1 [NY022701, (R)-N-(3,3-diphenylallyl)-3,3-diphenyl-N-(2-phenylpropyl)prop-2-en-1-amine] | 0.494 | No |  |  |
| O=S(=O)(c1ccc(F)cc1)N(CC=C(c1ccccc1)c1ccccc1)CCN1CCCC1 [PW277, N-(3,3-diphenylallyl)-4-fluoro-N-(2-(pyrrolidin-1-yl)ethyl)benzenesulfonamide] | 0.592 | Yes | 3.97 |  |
| C[C@@H](NCCN1c2ccccc2CCc2ccccc21)c1ccc(F)cc1 [NY0552, (R)-2-(10,11-dihydro-5H-dibenzo[b,f]azepin-5-yl)-N-(1-(4-fluorophenyl)ethyl)ethan-1-amine] | 0.426 | No |  | EC50 (mGFP-K-RASG12V; [2]): 4.05 µM |
| COc1ccc([C@@H](C)N(CC=C(c2ccccc2)c2ccccc2)CCN2CCNC(=O)C2)cc1 [NY325, (R)-4-(2-((3,3-diphenylallyl)(1-(4-methoxyphenyl)ethyl)amino)ethyl) piperazin-2-one] | 0.81 ± 0.02 | No | 7.7 | fold potency loss compared to 12e (mGFP-K-RASG12V; versus 12e): 6 fold |
| COc1cccc([C@@H](C)N(CC=C(c2ccccc2)c2ccccc2)CCN2CCN(C)CC2)c1 [NY0452, (R)-N-(1-(3-methoxyphenyl)ethyl)-N-(2-(4-methylpiperazin-1-yl)ethyl)-3,3-diphenylprop-2-en-1-amine] | 0.752 | Yes | 2.81 | IC50 (mGFP-K-RASG12V; MDCK cells, listed as 15c): 2.8 µM; Emax (mGFP-K-RASG12V; MDCK cells, 48 h, listed as 15c): 0.75 ± 0.04 |
| C[C@H](c1ccc(F)cc1)N(CC=C(c1ccccc1)c1ccccc1)CCn1ccc2cccnc21 [PW297, (R)-N-(2-(1H-pyrrolo[2,3-b]pyridin-1-yl)ethyl)-N-(1-(4-fluorophenyl)ethyl)-3,3-diphenylprop-2-en-1-amine] | 0.685 | No | 2.27 |  |
| O=C(c1cc(-c2ccc(Cl)cc2)on1)N(CC=C(c1ccccc1)c1ccccc1)CCN1CCCC1 [PW283, 5-(4-chlorophenyl)-N-(3,3-diphenylallyl)-N-(2-(pyrrolidin-1-yl)ethyl)isoxazole-3-carboxamide] | 0.324 | Yes |  |  |
| CCN(CC=C(c1ccccc1)c1ccccc1)[C@H](C)c1ccc(OC)cc1 [NY0429, (R)-N-ethyl-N-(1-(4-methoxyphenyl)ethyl)-3,3-diphenylprop-2-en-1-amine] | 0.835 | No | 10.6 | IC50 (mGFP-K-RASG12V; MDCK cells, listed as 11b): 10.6 µM; Emax (mGFP-K-RASG12V; MDCK cells, 48 h, listed as 11b): 0.84 ± 0.02 |
| C(CN1CCc2ccccc2C1)=C(c1ccccc1)c1ccccc1 [NY0221, 2-(3,3-diphenylallyl)-1,2,3,4-tetrahydroisoquinoline] | 0.585 | No | 0.65 |  |
| CCN(CC=C(c1ccccc1)c1ccccc1)[C@@H](C)c1ccc(OC)cc1 [NY0431] | 0.756 | No | 2.91 |  |
| COc1ccc([C@@H](C)N(CC=C(c2ccccc2)c2ccccc2)CCCCO)cc1 [NY0448, (R)-4-((3,3-diphenylallyl)(1-(4-methoxyphenyl)ethyl)amino)butan-1-ol] | 0.777 | Yes | 12.7 |  |
| C[C@H](c1ccc(Cl)cc1)N(CC=C(c1ccccc1)c1ccccc1)CCN1CCCC1 [NY0519, (R)-N-(1-(4-chlorophenyl)ethyl)-3,3-diphenyl-N-(2-(pyrrolidin-1-yl)ethyl)prop-2-en-1-amine] | 0.553 | Yes |  | EC50 (mGFP-K-RASG12V; [2]): 4.36 µM |
| O=C(c1cnc2ccccc2n1)N(CC=C(c1ccccc1)c1ccccc1)CCN1CCCC1 [PW285, N-(3,3-diphenylallyl)-N-(2-(pyrrolidin-1-yl)ethyl)quinoxaline-2-carboxamide] | 0.62 | Yes | 4.52 |  |
| O=C(OCc1ccccc1)N(CC=C(c1ccccc1)c1ccccc1)CCN1CCCC1 [PW280, benzyl (3,3-diphenylallyl)(2-(pyrrolidin-1-yl)ethyl)carbamate] | 0.709 | Yes | 6.03 |  |
| C=CCN(CCN1CCN(C)CC1)[C@H](C)c1ccc(OC)cc1 [NY349, (R)-N-(1-(4-methoxyphenyl)ethyl)-N-(2-(4-methylpiperazin-1-yl)ethyl)prop-2-en-1-amine] | 0.76 ± 0.02 | No | 59.3 | KRAS PM localization inhibition activity (in words) (mGFP-K-RASG12V): complete loss of in vitro activity |
| Brc1cccc(CN(CC=C(c2ccccc2)c2ccccc2)CCN2CCCC2)n1 [PW295, N-((6-bromopyridin-2-yl)methyl)-3,3-diphenyl-N-(2-(pyrrolidin-1-yl)ethyl)prop-2-en-1-amine] | 0.801 | Yes | 2.82 |  |
| C(CN(CC=C(c1ccccc1)c1ccccc1)C1(c2ccccc2)CC1)=C(c1ccccc1)c1ccccc1 [NY040401, N,N-bis(3,3-diphenylallyl)-1-phenylcyclopropanamine] | 0.778 | No | 1.46 |  |
| CCNC(=O)N(CC=C(c1ccccc1)c1ccccc1)[C@H](C)c1ccc(OC)cc1 [NY0504, (R)-1-(3,3-diphenylallyl)-3-ethyl-1-(1-(4-methoxyphenyl)ethyl)urea] | 0.845 | No |  | EC50 (mGFP-K-RASG12V; [2]): 0.91 µM |
| COc1ccc([C@@H](C)N(CC=C(c2ccccc2)c2ccccc2)CCN2CCOCC2)cc1 [NY316, (R)-N-(1-(4-methoxyphenyl)ethyl)-N-(2-morpholinoethyl)-3,3-diphenylprop-2-en-1-amine] | 0.86 ± 0.02 | No | 4.4 |  |
